Assay results reported in patent US20220356525A1, “METHODS OF DETERMINING WHETHER PATIENTS SUFFERING FROM ACUTE MYELOID LEUKEMIA WILL ACHIEVE A RESPONSE TO AN MYC-TARGETING THERAPY” (INSERM (INSTITUT NATIONAL DE LA SANTÉ ET DE LA RECHERCHE …, priority 2019, published 2022).

Experiments:
OCI-AML2 cells = experiment: Pooled CRISPR/Cas9 epigenetic screen with JQ1; type: cell-based, human
Method: OCI-AML2 cells were seeded into six-well plates at a density of 3×10^6 cells per well and transduced at MOI 0.2. […] 24 hours post-transduction, cells were replated into puromycin-containing media. A sample was collected at 48 hours post-puromycin to confirm library coverage in the transduced population. Transduced cells were expanded in puromycin for 10 days before drug, when the transduced population was split into vehicle (DMSO) and JQ1 conditions and maintained for two weeks. Deep sequencing was performed by Hudson Alpha Institute for Biotechnology on an Illumina Nextseq platform (75 bp, single-ended) to identify differences in library composition. Additional information is provided in the supplementary material and methods section.

[1] = system: AML cell lines (KG1a, IMS-M2, and U937); experiment: AML cell line sensitivity to BET/CDK7 inhibitors in standard versus nutrient-deprived (folic acid-starved) media; type: cell-based, human; settings: for AML cell line sensitivity: folic acid withdrawal
Text: BET proteins interact with acetylated histones in active regulatory domains (promoters and enhancers) and promote RNA PolII activity. Despite the general nature of this mechanism, BET inhibitors have shown selective effects on gene expression through suppression of […] and MYC-related transcriptional programs (8, 11, 12). Two cohorts of AML patients (TCGA-LAML, n=198 and GSE14468, n=526) were queried with multiple gene sets related to MYC transcriptional programs as well as vitamin, amino acid, and nucleotide metabolism using single sample Gene Set Enrichment Analysis (ssGSEA). Correlation between gene sets was queried across all patients from each cohort to pinpoint potential crosstalk between active MYC programs and specific metabolic pathways (data not shown).
(§1) To investigate further the relationship between folic acid starvation and increased BET inhibitor resistance, we compiled a panel of AML cell lines harboring diverse genetic alterations. […] The effect of folic acid removal was also evaluated in cell lines treated either with a second BET inhibitor, JQ1, or with THZ-1, a covalent inhibitor of CDK7, another key factor in transcriptional elongation at super-enhancer regions and a strong inhibitor of MYC expression (data not shown). […] Therefore, we studied selective suppression of BRD4 by short hairpin RNA (shRNA) in two AML cell lines.

MLL-AF9-driven AML cells = experiment: MLL-AF9-driven AML mouse models treated with JQ1; type: in vivo, mice
Method: (E) MLL-AF9-transformed GFP-positive granulomonocytic progenitors (Sca-1^−/c-KIT^+/CD16/32^+/CD34^+/MPO^+) from homozygous wild-type […], or heterozygous (+/−) and homozygous (−/−) Mthfr knockout mice transplanted into sublethally-irradiated recipient mice before treatment with vehicle or 50 mg/kg JQ1 for 7 days. Proportion of GFP-positive MLL-AF9 leukemic cells in bone marrow from five mice per group. p-value by Mann-Whitney test. n.s, nonsignificant (p>0.05). Error bars represent mean±SD.
The French National Committee on Animal Care reviewed and approved all mouse experiments. Sample size was influenced by historical penetrance and consistency of MLL-AF9-driven in vivo models. For the Mthfr knockout AML mouse model, BALB/cJ mice were purchased from Charles River Laboratories. Each recipient mouse was transplanted with transduced Scal^−/c-Kit^+ myeloid progenitors sorted from the total bone marrow of three donor mice. Approximatively two months post-transplantation, sick mice were euthanized and bone marrow harvested before flow-based sorting of MLL-AF9-positive granulo-monocytic bone marrow progenitor population (GFP^+/Sca-1^−/c-Kit^+/Cd16/32^+/Cd34^+) and PCR-based confirmation of Mthfr knockout status. 0.2×10^6 MLL-AF9-positive Mthfr^+/+, Mthfr^+/−, and Mthfr^−/− cells were then reinjected into sublethally-irradiated secondary recipient mice treated daily by intraperitoneal injection with 50 mg/kg JQ1 (10% DMSO+90% G5W).
For folate starvation experiments, 5-week old male C57BL/6J mice were given regular or folate-deficient casein-reconstituted diet (Safe-Diets) for 4 weeks before sublethal irradiation (350cGy) and injection with 0.2×10^6 MLL-AF9-positive L-GMP cells before treatment with 35 mg/kg or 50 mg/kg JQ1 (10% DMSO+90% G5W) for 7 days. For Mthfr knockdown experiments, MLL-AF9-positive L-GMP cells were infected with a control or two Mthfr-directed shRNAs cloned into an MSCV-miRE-SV40-eBFP vector modified from the MSCV-miRE_shBRD9_561-SV40-GFP vector (Addgene, #75139) by substitution of the GFP cassette with an eBFP fluorescent marker. 0.2×10^6 infected cells were injected into sublethally-irradiated 5-week old C57BL/6J recipient mice. Additional information is provided in the supplementary material and methods section.

BRD4 = BRD4 (Homo sapiens, UniProt O60885); settings: previous studies; cited from earlier work
[2] = system: KG1a, U937 and IMS-M2 cells; experiment: OTX015 sensitivity with SAH supplementation; type: cell-based, human
Text: We next used metabolism profiling to characterize the effect of folate pathway alteration on global cell metabolism in U937 cells. […] ShRNA-mediated MTHFR depletion induced a similar increase in SAH levels as that observed upon folate withdrawal in AML cell lines U937 and IMS-M2 (data not shown).

[3] = system: MLL-translocated primary patient samples with AML; experiment: OTX015 sensitivity of primary AML patient samples; type: cell-based, human
Method: (§2) Error bars represent mean±SD.
as §1
Previous studies have extensively characterized two common MTHFR genetic variants, C677T and A1298C, encoding MTHFR enzyme variants with reduced activity, resulting in hyperhomocysteinemia in human carriers. In particular, the homozygous variant 677 TT and 1298 CC genotypes are present in ˜10% of Caucasians and display only 30% and 60% of the homozygous wild-type 677 CC and 1298 AA enzyme activities, respectively (16, 17). […] Five KG1a clones either 1) wild-type 677 CC and 1298 AA, 2) heterozygous 677 CT or 1298 AC, or 3) homozygous 677 TT or 1298 CC, were selected and genotyped via allelic discrimination technique (FIG. 1A). […] Finally, we engineered a tractable MLL-AF9-driven mouse model of AML in which Mtfhr genotype status was either homozygous wild-type, heterozygous or homozygous knockout.

[4] = system: CRISPR/Cas9-edited KG1a clones; experiment: OTX015 sensitivity and colony formation of CRISPR/Cas9-edited KG1a clones with MTHFR variants; type: cell-based, human
Text: Error bars represent mean±SD. Experiment performed at least two independent times.
as §2
Additional information is provided in the supplementary material and methods section.
Finally, we engineered a tractable MLL-AF9-driven mouse model of AML in which Mtfhr genotype status was either homozygous wild-type, heterozygous or homozygous knockout.

IMS-M2 and U937 cells [5] = settings: 50 μM 5-CH3 THF; MTHFR-directed shRNAs
CDK7 = CDK7 (Homo sapiens, UniProt P50613); settings: Table 1, Kwiatkowski et al. (2014); cited from earlier work
U937 cell colonies = experiment: Colony formation assay with OTX015 at reduced folic acid; type: cell-based, human; settings: 125-fold decrease in folic acid (1 mg/L to 0.008 mg/L)
Method: as §1

[6] = system: MLL-AF9-transformed Mthfr knockout primary murine cells; experiment: OTX015 resistance after Spi1 knockdown in Mthfr knockout cells; type: cell-based
IMS-M2 AML cells = experiment: OTX015 sensitivity after shRNA knockdown of folate cycle enzymes; type: cell-based, human; settings: for increase of IC50 of OTX015: average
IMS-M2 and U937 cells [7] = experiment: OTX015 resistance after SPI1 knockdown with folate withdrawal or MTHFR suppression; type: cell-based, human; settings: SPI1 depletion; folate cycle disturbed or MTHFR suppressed
Text: To explore functionally whether SPI1 transcriptional program activation induced by folate cycle disruption promotes resistance to BRD4 inhibition, we knocked down SPI1 in IMS-M2 and U937 cells before folate withdrawal or MTHFR suppression (FIGS. 5F and 5G).

U937 cells = experiment: OTX015 sensitivity after EED, EHMT1, SETDB1 hairpins; type: cell-based, human; settings: hairpins reducing EED, EHMT1 and SETB1 protein
[8] = system: AML cell lines: KG1a, OCI-AML2, and U937; experiment: OTX015 response and colony number after MTHFR-directed shRNAs in AML cell lines; type: cell-based, human
Text: Dietary folic acid undergoes several conversion steps into intermediate metabolites before generation of 5,10-methylene-THF (5,10-CH2 THF). 5,10-CH2 THF is then either reduced in the folate cycle or oxidized in the formate-producing tetrahydrofolate salvage cycle, depending on cellular needs. Despite the fact that folic acid can ultimately be processed through these two interconnected pathways, we observed in our previous ssGSEA analyses that active MYC gene signatures were highly correlated with activation of tetrahydrofolate salvage cycle, but not with folate cycle-related gene sets (data not shown). […] Five central enzymes control the multi-step conversion of dietary folate into 5,10-methylene-THF (5,10-CH2 THF) before its reduction to 5-methyl-THF (5-CH3 THF) and recycling to THF. […] Finally, we abrogated Mthfr expression in primary murine MLL-AF9-driven AML cells using two Mthfr-directed shRNAs before treatment of engrafted mice with JQ1 (data not shown).

AML cells = experiment: Apoptosis in response to OTX015 upon folic acid withdrawal; type: cell-based, human
Method: as §1

[9] = system: MYC transcriptional program; experiment: RNA sequencing and gene set enrichment after OTX015 for 24 hours; type: cell-based, human; settings: IMS-M2 and U937; irrespective of folate status; FDR<0.25
[10] = folic acid-starved media versus standard media, panel of AML cell lines

Chain of CDK7 (P50613 whole entry): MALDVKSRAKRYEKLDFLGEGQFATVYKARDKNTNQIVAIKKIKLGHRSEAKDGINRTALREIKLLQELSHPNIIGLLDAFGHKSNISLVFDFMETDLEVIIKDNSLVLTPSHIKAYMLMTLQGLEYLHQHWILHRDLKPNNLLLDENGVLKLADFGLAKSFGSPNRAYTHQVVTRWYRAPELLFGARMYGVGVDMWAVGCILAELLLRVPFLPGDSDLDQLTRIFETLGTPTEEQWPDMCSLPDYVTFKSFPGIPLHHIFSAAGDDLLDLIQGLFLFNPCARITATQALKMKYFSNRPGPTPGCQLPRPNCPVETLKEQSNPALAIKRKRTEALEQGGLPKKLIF
Chain of CDK7 (P51946 whole entry partner): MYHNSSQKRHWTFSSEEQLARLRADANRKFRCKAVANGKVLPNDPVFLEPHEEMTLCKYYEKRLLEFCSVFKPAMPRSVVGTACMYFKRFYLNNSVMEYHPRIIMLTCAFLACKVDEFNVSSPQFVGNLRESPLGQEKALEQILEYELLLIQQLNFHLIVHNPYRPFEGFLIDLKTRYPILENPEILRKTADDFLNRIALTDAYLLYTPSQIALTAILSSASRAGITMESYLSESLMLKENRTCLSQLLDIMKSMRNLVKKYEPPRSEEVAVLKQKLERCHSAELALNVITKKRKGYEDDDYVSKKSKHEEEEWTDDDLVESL

SMILES: Cc1sc2c(c1C)C(c1ccc(Cl)cc1)=N[C@@H](CC(=O)OC(C)(C)C)c1nnc(C)n1-2 [JQ1, tert-butyl 2-[(9S)-7-(4-chlorophenyl)-4,5,13-trimethyl-3-thia-1,8,11,12-tetrazatricyclo[8.3.0.02,6]trideca-2(6),4,7,10,12-pentaen-9-yl]acetate]
- effect of gene knockout on cells treated with JQ1 (OCI-AML2 cells; knockout of EED, EIMT1 and SETDB1, 2 weeks): rescued cells from JQ1
- effect of gene knockout on cells treated with JQ1 (OCI-AML2 cells; knockout of KDMIA, JMJDIC and KDM3B): enhanced cell sensitivity to JQ1
- AML cell line sensitivity [1]: significantly dampened
- leukemic burden (MLL-AF9-driven AML cells; animals transplanted with Mthfr-depleted (shRNA) blasts, JQ1 treatment): not significantly decreased
- sensitivity of leukemic burden to JQ1 (MLL-AF9-driven AML cells; control shRNA counterparts): striking sensitivity
- sensitivity to JQ1 (GFP-positive MLL-AF9 leukemic cells in bone marrow) (MLL-AF9-driven AML cells; loss of a single copy of Mthfr, 50 mg/kg JQ1 for 7 days): sufficient to attenuate sensitivity
- anti-leukemic activity (MLL-AF9-driven AML cells; mice fed no folate diet versus regular diet): markedly attenuated
- overall survival after JQ1 treatment (MLL-AF9-driven AML cells; mice injected with Mthfr-depleted cells versus control leukemic cells): significantly shorter
- inhibition of BRD4 (BRD4): potently inhibited

SMILES: CN(C)C/C=C/C(=O)Nc1ccc(C(=O)Nc2cccc(Nc3ncc(Cl)c(-c4c[nH]c5ccccc45)n3)c2)cc1 [THZ-1]
- AML cell line sensitivity [1]: significantly dampened

SMILES: Nc1ncnc2c1ncn2[C@@H]1O[C@H](CSCC[C@H](N)C(=O)O)[C@@H](O)[C@H]1O [SAH, S-adenosylhomocysteine]
- cytoprotective effect of SAH against OTX015 ([2]; methionine depleted 300-fold, IMS-M2 cells): enhanced the cytoprotective effect of SAH against OTX015
- resistance to OTX015 with SAH ([2]; methionine depleted, U937 and KG1a cells): even greater resistance to OTX015 than folate restriction alone

SMILES: CN1c2c(nc(N)[nH]c2=O)NCC1CNc1ccc(C(=O)N[C@@H](CCC(=O)O)C(=O)O)cc1 (stereo partly drawn) [5-CH3 THF, 5-methyltetrahydrofolate]
- effect on response to OTX015 (IC90, 5 days) ([3]; 50 μM 5-CH3 THF, three patient samples with altered MTHFR genotype): sensitized to OTX015
- effect on response to OTX015 (fold change of IC50, 5 days) ([4]; 50 μM 5-CH3 THF, 677 TT or 1298 CC clones versus wild-type): substantially enhanced response to OTX015
- effect on cytotoxicity of OTX015 (fold change of IC50, 5 days) (IMS-M2 and U937 cells [5]): restored a cytotoxic effect of OTX015

SMILES: CC[C@H](CO)Nc1nc(NCc2ccccc2)c2ncn(C(C)C)c2n1 [Roscovitine]
- inhibitory activity toward CDK7 relative to other CDKs (CDK7): lower inhibitory activity toward CDK7 than toward at least one other CDK

SMILES: CN1CC[C@H](c2c(O)cc(O)c3c(=O)cc(-c4ccccc4Cl)oc23)[C@H](O)C1 [flavopiridol]
- inhibitory activity toward CDK7 relative to other CDKs (CDK7): lower inhibitory activity toward CDK7 than toward at least one other CDK

SMILES: Cc1sc2c(c1C)C(c1ccc(Cl)cc1)=N[C@@H](CC(=O)Nc1ccc(O)cc1)c1nnc(C)n1-2 [OTX015]
- number of colonies in presence of OTX015 (U937 cell colonies): significantly increased the number of U937 cell colonies
- response to OTX015 (IC90, 5 days) ([3]; 16 samples, homozygous and compound heterozygous MTHFR genotype versus wild-type and heterozygous): responded significantly less
- IC50 ([3]; folic acid withdrawal): markedly increased
- number of colonies upon OTX015 treatment ([4]; 677 TT and 1298 CC homozygous versus wild-type clones, 1 μM OTX015): substantially higher
- resistance to OTX015 ([1]; folic acid starvation, KG1a, IMS-M2, U937): consistently enhanced resistance
- area under curve (AUC) [1, 10]: significantly increased
- half-maximal inhibitory concentration (IC50) [1, 10]: significantly increased
- resistance to OTX015 ([1]; phenylalanine and histidine starvation): increased resistance to OTX015 in a subset of AML cell lines
- resistance to OTX015 [6]: abrogated resistance to OTX015
- increase of IC50 of OTX015 (IMS-M2 AML cells; hairpins targeting DHFR and DHFR2): 3 fold
- increase of IC50 of OTX015 (IMS-M2 AML cells; hairpins targeting MTHFR): 7 fold
- response to OTX015 (IMS-M2 AML cells; hairpins targeting SHMT1 and MTR): did not significantly alter response
- OTX015 resistance (IMS-M2 and U937 cells [7]): significantly reduced OTX015 resistance
- OTX015 sensitivity (U937 cells): markedly alleviated OTX015 sensitivity
- response to increasing doses of OTX015 ([8]; MTHFR suppression): substantially weakened the response
- colony number upon OTX015 treatment ([8]; MTHFR-depleted versus shCT-infected cells): significant increase in colony number
- apoptosis in response to OTX015 (AML cells): decrease in apoptosis
- enrichment of MYC gene sets in genes suppressed by OTX015 [9]: highly enriched

SMILES: CC(C)CC(=O)Nc1[nH]nc2c1CN(C(=O)C1CCN(C)CC1)C2(C)C [PHA-793887]
- inhibitory activity toward CDK7 relative to other CDKs (CDK7): lower inhibitory activity toward CDK7 than toward at least one other CDK
